The results in this text go back to patent US20190093096A1, “COMOSAIN AND BROMELAINS AS IMMUNO-THERAPY IN THE TREATING AND/OR PREVENTING VARIOUS TYPES OF CANCER IN A MAMMAL” (priority 2017, published 2019).

The nature of data set [1]: Blood analysis on rabbits fed high cholesterol diets. Type of data set: in vivo, New Zealand white rabbits. The note with it: for decrease of plasma total cholesterol as compared to control group / decrease of plasma triglycerides as compared to control group: 1% cholesterol diet plus 0.15% flavonoid. As for the experimental part:
The rabbits were fed for 8 weeks with free access to specific high cholesterol diets and water. Body weight was recorded every 7 days and the records were analyzed. […] (Rutin, quercetin and kaempherol were purchased from Aldrich-Sigma Co. St. Louis, Mo. USA) (Vitexin was purchased from Indofine Co. Sumerville, N.J. USA)
(Step B) After 8 weeks of breeding, the rabbits were anesthetized with injection of ketamine 75 mg/kg in the femoral muscle and sacrificed. Blood samples were collected from the heart of each rabbit to determine the blood analysis consisting of; complete blood count (CBC), Chemistry-7 and 24, (including Liver and renal function tests), lipid profiles, (including Total cholesterol, HDL, LDL, VLDL and triglycerides), coagulation factors consisting of; Prothrombin time (PT), Partial thromboplastin time (PTT), and immuno-globulin-E (an anti-allergenic factor).
The blood samples collected from rabbits of the six dietary groups were allowed to stand for 2 hours, then centrifuged at 4000 rpm for 10 minutes. (Megafuge, Baxter-Heraeus instrument Co. N.J., USA) The supernatants were separated and stored in a deep freeze before analysis. The chemistry analysis was carried out by blood chemistry analyzer (Cobras-Integra-700, Roche Diagnostic Lab. Indiana, USA) to determine the changes in total cholesterol, HDL, LDL, triglycerides, liver function tests (such as SGOT, SGPT, G-GPT) and coagulation factors (PT, PTT) (Bayer-MLA-Electra-900 Automatic coagulation timer). The results were tested by using student t-test and Microsoft excel-7.0 program. The results are depicted in Table III. • 3.

Data set [2] is described as follows: Toxicity of rutin, quercetin, kaempherol and vitexin in mice by oral administration. The note with it: for adverse effects on hematopeutic, renal, hepatic systems / toxicity: oral, mouse, rutin 1500, quercetin 1250, kaempherol 1000, vitexin 500 mg/kg; for body weight during observation / pathological abnormality of internal organs, visually or microscopically / survival at day 180: single oral dose; for body weight during observation: 180 days of observation; for pathological abnormality of internal organs, visually or microscopically: sacrifice on day 181; for survival at day 180: rutin 1500, kaempherol 1000, vitexin 500 mg/kg.

Data set [3] in a line: Analysis for fatty streak deposition in thoracic aorta. Type of data set: in vivo, New Zealand white rabbits. To be noted: control group: thick layer; 1% cholesterol diet, 8 weeks.
Data set [4] in a line: Fatty degeneration in the liver of the rabbits. The data set is classed as in vivo, New Zealand white rabbits. To be noted: 1% cholesterol diet, 8 weeks. An excerpt: According to the report of Fogt F. and Nanji A., (Toxicology and Applied Pharmacology; 136, pp 87-93, 1996) and Keegan A. et al., (Journal of Hepatology; 23, pp 591-600, 1995). Fatty degeneration of liver can be classified into four grades based upon the abnormal fat containing cells around the central vein of liver acinus, for example: grade 1 (0-25%), grade 2 (26-50%), grade 3 (51-75%), grade4 (76-100%). The effects of rutin, quercetin, kaempherol and vitexin on liver tissue on the rabbits from Example 4 Step B were examined.

In data set [5] the test system is breast cancer cell line. Description: Growth inhibition of breast cancer cell line by Quercetin and Naringenin in vitro. Type of data set: cell-based.
The test system of data set [6] is lung cancer cells. Kind of data set: Inhibition of tumor cell growth of lung cancer by pepsin and trypsin in vitro. Type of data set: cell-based. To be noted: 72 hours at 37 C, 10% CO2, Coulter counter. An excerpt: The graph represents the two experiments with Pepsin and Trypsin.

With `C[C@@H]1O[C@@H](OC[C@H]2O[C@@H](Oc3c(-c4ccc(O)c(O)c4)oc4cc(O)cc(O)c4c3=O)[C@H](O)[C@@H](O)[C@@H]2O)[C@H](O)[C@H](O)[C@H]1O` [Rutin, Quercetin-3-rutinoside], in data set [1] (rabbits, 8 weeks), the “decrease of plasma total cholesterol as compared to control group” value (“decrease of plasma total cholesterol” below) is on record as 32% and the “decrease of plasma triglycerides as compared to control group” value (“decrease of plasma triglycerides” below) is recorded as 45%. Moreover, the “liver function and WBC” value in data set [1] (rabbits, 8 weeks, unlike the Simvastatin group) is “not affected”. In data set [2], the “adverse effects on hematopeutic, renal, hepatic systems” value (“adverse effects on hematopeutic, renal” below) is “no adverse effects”; the toxicity entry was “no toxicity”; the “body weight during observation” value is recorded as “no body weight loss”; the “pathological abnormality of internal organs, visually or microscopically” value (from here on “pathological abnormality”) was “did not develop any pathological abnormality”. In data set [2], the “survival at day 180” value is listed as “All mice were alive”.

Take `O=c1c(O)c(-c2ccc(O)cc2)oc2cc(O)cc(O)c12` [Kaempherol, 3,5,7,4′ tetra-hydroxy-flavone]: the “liver function and WBC” value in data set [1] (rabbit, in vivo) is listed as “not affected”. For the same molecule, in data set [1] (rabbits, 8 weeks), the “decrease of plasma total cholesterol” value worked out at 30%; the “decrease of plasma triglycerides” value is recorded as 22%; the “reducing plasma total cholesterol and triglycerides, compared with Simvastatin” value is “more effective”. Further, in data set [2], the “adverse effects on hematopeutic, renal” value is given as “no adverse effects”; the toxicity entry is recorded as “no toxicity”; the “body weight during observation” value is listed as “no body weight loss”; the “pathological abnormality” value is “did not develop any pathological abnormality”. The “survival at day 180” value in data set [2] is listed as “All mice were alive”. In addition, in data set [3], the “macrophage lipid cell complex in the aorta walls (microscopic pictures)” value (“macrophage lipid cell complex” below) is given as “no or a very thin layer of macrophage lipid cell complex”. Also, the “microscopic features of the liver (fat containing cells)” value (“microscopic features of the liver” for short) in data set [4] is listed as “almost all of the liver cells are normal without containing fat particles”.

Regarding `O=C1C[C@@H](c2ccc(O)cc2)Oc2cc(O)cc(O)c21` [Naringenin], the “growth of breast cancer cell line” value in data set [5] is “Growth inhibition”.

“pepsin: proteinase purchased from Sigma-Aldrich”: the “tumor cell growth of lung cancer” value in data set [6] is reported as “Inhibition of tumor cell growth”.

`O=c1c(O)c(-c2ccc(O)c(O)c2)oc2cc(O)cc(O)c12` [Quercetin, 3,5,7,3′,4′ penta-hydroxy flavone]: the “liver function and WBC” value in data set [1] (rabbit, in vivo) was “not affected”. For the same molecule, in data set [1] (rabbits, 8 weeks), the “decrease of plasma total cholesterol” value turned out to be 33%; the “decrease of plasma triglycerides” value was 47%; the “reducing plasma total cholesterol and triglycerides, compared with Simvastatin” value was “more effective”. In addition, in data set [2], the “adverse effects on hematopeutic, renal” value was “no adverse effects”; the “body weight during observation” value is “no body weight loss”; the “pathological abnormality” value was “did not develop any pathological abnormality”; the “survival at day 180” value was “All mice were alive”. Besides, the “macrophage lipid cell complex” value in data set [3] is reported as “no or a very thin layer of macrophage lipid cell complex”. The “growth of breast cancer cell line” value in data set [5] is listed as “Growth inhibition”. The “microscopic features of the liver” value in data set [4] is listed as “almost all of the liver cells are normal without containing fat particles”.

For the molecule `O=c1cc(-c2ccc(O)cc2)oc2c(C3O[C@H](CO)[C@@H](O)[C@H](O)[C@H]3O)c(O)cc(O)c12` (stereo partly drawn) [Vitexin, 8-D-glucosyl-4′,5,7 trihydroxy-flavone], the “liver function and WBC” value in data set [1] (rabbit, in vivo) was “not affected”. For the same molecule, in data set [1] (rabbits, 8 weeks), the “decrease of plasma total cholesterol” value is 30%; the “decrease of plasma triglycerides” value stood at 17%; the “reducing plasma total cholesterol and triglycerides, compared with Simvastatin” value was “more effective”. Further, in data set [2], the “adverse effects on hematopeutic, renal” value was “no adverse effects”; the toxicity entry is “no toxicity”; the “body weight during observation” value was “no body weight loss”; the “pathological abnormality” value was “did not develop any pathological abnormality”. The “survival at day 180” value in data set [2] was “All mice were alive”. The “macrophage lipid cell complex” value in data set [3] is recorded as “no or a very thin layer of macrophage lipid cell complex”. For the same molecule, in data set [4], the “microscopic features of the liver” value was “almost all of the liver cells are normal without containing fat particles”.

B1: trypsin: proteinase purchased from Sigma-Aldrich (protein, UniProt P00760 24-246, looked up)
Serine protease 1: IVGGYTCGANTVPYQVSLNSGYHFCGGSLINSQWVVSAAHCYKSGIQVRLGEDNINVVEGNEQFISASKSIVHPSYNSNTLNNDIMLIKLKSAASLNSRVASISLPTSCASAGTQCLISGWGNTKSSGTSYPDVLKCLKAPILSDSSCKSAYPGQITSNMFCAGYLEGGKDSCQGDSGGPVVCSGKLQGIVSWGSGCAQKNKPGVYTKVCNYVSWIKQTIASN
With B1, in data set [6], the “tumor cell growth of lung cancer” value is “Inhibition of tumor cell growth”.
